The text below walks through data of US20240065982A1 (priority 2020, published 2024).

This data set in a line: Clearance of ionizable lipid from the mouse lung following chamber nebulization of mRNA LNP (LC-MS). Type of data set: in vivo. How it is done: On the day of dosing the LNP formulations were diluted to 1.2 mg/mL with PBS and 1.25 mL (1.5 mg dose) of these solutions are placed in Aerogen Solo nebulizer units which sit in a housing attached to a mouse chamber of dimensions 9″×4″×5″ (1×w×h) with a carbon filter attached. Six (6) Balb/C mice are dosed in the chamber at a time. An airflow of 1.5 L/min was forced through the nebulizer housing unit and the nebulizer turned on. During nebulization, some of the LNP condensed from the nebulizer and was collected and passed back through the nebulizer. This continued until no condensate was collected. Upon nebulization to dryness, the mice remained in the chamber for an extra 1-2 min until the LNP vapor dissipated. Complete nebulization of the LNP typically took ˜15 min. At each time points of 0.25 h (immediately after nebulization), 1 h, 6 h and 24 h, three (3) animals per formulation were euthanized with a lethal dosage of ketamine/xylazine and the lungs were excised and cut into ˜100 mg sections. These were placed in FastPrep tubes, fast frozen in liquid N2, and stored at […] until LC-MS analysis.
To the lung sections were added 5 volumes of PBS (e.g. to 50 mg of lung added 250 μL of PBS). These were then homogenized in a FastPrep instrument using 3 cycles of 15 sec each, with a speed of 5.0 m/s and were centrifuged at low speed. Spiked lung homogenate standards were prepared for each cationic lipid (103, 101 and 102) using the lung homogenates of mice dosed with PBS. For each cationic lipid, 10 standards were prepared: the highest standard at a concentration of 12,500 ng/mL with serial dilution by ½ down to 24.4 ng/mL. 20 μL of the homogenates (samples and standards) was added to 225 μL of ISS (IPA containing 100 ng/mL 1-B11 internal standard) in 96-well plates. The plates were mixed by pipetting up and down and were centrifuged at 2500 rpm for 15 min. The supernatant from these extractions were analyzed by LC-MS. By comparing the signal obtained for each sample to the appropriate standard curves for each cationic lipid (103, 101 and 102), the ng/mL of cationic lipid in each homogenate was determined. These values were then normalized to the exact mass of lung tissue that was analyzed. For the Non-biodegradable cationic lipid, the resulting average (n=3) ng 103/g of lung values were plotted without any further manipulation. For the Hydrolyzable cationic lipid, the ng/g of lung values at each time point for both 101 and 102 were combined to give the average (n=3) ng cationic lipid/g of lung values.

Where [1] appears, read: 24 h post administration, nebulized mRNA LNP, mice.

For `CCCCC/C=C\CCCO[Si](CCCCN(C)C)(OCCC/C=C\CCCCC)OCCC/C=C\CCCCC` [Example 101], the “fate of the lipid in the lungs by 24 h, in words” value (shortened to “fate of the lipid in the lungs”) under setting [1] is “close to complete lipid hydrolysis”.
On to `CCCCC/C=C\CCCO[Si](CCCCN(C)CCO)(OCCC/C=C\CCCCC)OCCC/C=C\CCCCC` [Example 102], for which, under setting [1], the “fate of the lipid in the lungs” value is listed as “close to complete lipid hydrolysis”.
On to `CCCCC/C=C\CCCC(CCC/C=C\CCCCC)C(CCC/C=C\CCCCC)OC(=O)CCCCN(C)C` (stereo not shown) [Example 103], for which the “% Cationic Lipid Remaining” value came out at 100% (Balb/C, mouse, in vivo); 120% (Balb/C, mouse, in vivo, 1 h); 90% (Balb/C, mouse, in vivo, 6 h); 94% (Balb/C, mouse, in vivo, 24 h). The “fate of the lipid in the lungs” value (Balb/C, mouse, in vivo, 24 h) is “remained in the lungs for the complete 24 h”.
